The record followed here is patent EP0169787B1, “Use of oligonucleotides bonded to an intercalating agent as drugs” (priority 1984, dated 1986).

One data set relates to cellules CV1. Format: cell-based, singe. The procedure:
La dilution de virus dans un tampon phosphate isotonique a été choisie de façon […] cultures témoins environ 75% de destruction cellulaire (75% d'effet cytopathogène) après 3 jours d'incubation. Après 1 heure de contact à 37°C, l'inocu- lum […] du même milieu contenant ou non les produits à étudier sont ajoutés. […] Des cultures de cellules non infectées par le virus et traitées avec les produits ont été aussi examinées pour […] cytotoxiques éventuels. Les pourcentages de destruction cellulaire dans les cultures infectées (effet cytopathogène) et dans les cultures non infectées (effet cytotoxique des produits) sont indiqués dans le tableau V.

The test system of a further data set is A/Victoria (H3N2). Format: cell-based. As to conditions: cellules MDCK; for Pourcentage de destruction cellulaire Cultures infectées (effet cytopathogène) par A/Victoria (H3N2): 3 jours.
A further data set concerns virus SV40. Put plainly: Inhibition of SV40 multiplication (cytopathogenic effect) in CV1 cell cultures. The following applies: 3 jours, témoins 75. Format: cell-based.

Like-named read-outs stand apart in the source and are kept apart here.

With `COc1ccc2nc3cc(Cl)ccc3c(NCCCCCCO)c2c1` [HO(CH2)6 Z", méthoxy-2-chloro-6(ω-hydroxyhexylamino)-9 acridine], the “effet cytotoxique / toxicité vis-à-vis des cellules saines” value with cellules CV1 is recorded as “trop important”.

With `COc1ccc2nc3cc(Cl)ccc3c(NCCCCCO)c2c1` [Acr(CH2)5OH, méthoxy-2 chloro-6 (ω-hydroxypentyl-amino)-9 acridine], the “Pourcentage de destruction cellulaire Cultures infectées (effet cytopathogène) par A/Victoria (H3N2)” value in the data set with A/Victoria (H3N2) (0,5 µg/ml), in the data set with A/Victoria (H3N2) (0,25 µg/ml) and in the data set on A/Victoria (H3N2) (1,0 µg/ml) was 100% each time. Also, the “effet inhibiteur de la multiplication du virus grippal A/Victoria (H3N2)” value with A/Victoria (H3N2) (result in words) is recorded as “dépourvu d'activité”. Also, the “Pourcentage de destruction cellulaire Cultures infectées par SV40 (effet cytopathogène)” value in the data set with virus SV40 (0,5 µg/ml) is listed as 50%; in the data set on virus SV40 (0,5 µg/ml, listed as Acr(CH2)50H), “n'exerce pas d'effet inhibiteur significatif”; in the data set on virus SV40 (0,25 µg/ml) it was 75%; in the data set with virus SV40 (0,25 µg/ml, listed as Acr(CH2)50H), “n'exerce pas d'effet inhibiteur significatif”; with virus SV40 (1,0 µg/ml), 75%; in the data set on virus SV40 (2,0 µg/ml) it was 100%.
